tested on: ct-DNA; experiment: DNA binding study by UV–Vis absorption titration; parameters: species or system calf; conditions: intraligand band ca. 370 nm on addition of ct-DNA
Experimental: The absorption spectra of complexes 4a–c (1 × 10^−[…]) were recorded in the presence of increasing amounts of ct-DNA. Intraligand absorption bands with λmax in the region 350 –380 nm were used to monitor the interaction of compounds with ct-DNA. The intraligand absorption value was chosen as λmax = […], so the absorbance of DNA would not interfere. The UV–Vis spectrum affected by DNA addition is shown for complexes 4a in Figure 3, and the UV–Vis spectra of other compounds are provided in the Supplementary Materials (Figure S3-1).
The DNA binding constants (Kb) of the complexes were determined by the Wolfe–Shimer equation (Equation (1)) and the respective plots (Figure 3 and Figure S3-1).
The interactions of prepared complexes 4a–c with ct-DNA have been studied by UV–Vis monitored titration. The ct-DNA solution was prepared by dissolving 6 mg of ct-DNA in 5 mL of citrate buffer (composed of 15 mM sodium citrate and 150 mM sodium chloride mixture solution, at pH = 7.0). The concentration of ct-DNA was then determined by UV–Vis spectroscopy with the molar absorption coefficient of ct-DNA at 260 nm (6600 M^−1cm^−1). The studied complexes were dissolved in DMSO, from which working solutions were prepared by dilution using citrate buffer solution. Increasing concentrations of ct-DNA were then added to a buffer/DMSO solution (<1% DMSO) of the corresponding complex (1 × 10^−[…]).
For the values of the binding strength of the interaction between the complex and the DNA molecule, binding constants Kb were calculated by the ratio of slope to the y intercept in the plots [DNA]/(εA-εf) compared to [DNA], according to the Wolfe–Shimer equation (Equation (1)):(1) [DNA]/(εA−εf)=[DNA]/(εb−εf)+1/Kb(εb−εf) where [DNA] is the concentration of DNA in base pairs, εf is the extinction coefficient of the free complex at the corresponding λmax, εA = Aobsd/[compound] and εb is the extinction coefficient of the complex in the fully bound form.

Compound	decrease of intensity (ΔA/A0), hypochromism [%]
COc1ccccc1CN=Cc1ccccc1[O-].COc1ccccc1CN=Cc1ccccc1[O-].[Cl-].[Cl-].[Cu+2].[Cu+2] [Complex 4a, [Cu2 (Sal-2-MeOBn)2 Cl2]]	32
COc1ccc(CN=Cc2ccccc2[O-])cc1.COc1ccc(CN=Cc2ccccc2[O-])cc1.[Cl-].[Cl-].[Cu+2].[Cu+2] [Complex 4c, [Cu2 (Sal-4-MeOBn)2 Cl2]]	28
COc1cccc(CN=Cc2ccccc2[O][Cu][O]c2ccccc2C=NCc2cccc(OC)c2)c1 [Complex 4b, [Cu (Sal-3-MeOBn)2]]	26
